According to patent publication US20100143506A1, “APPARATUS AND METHOD FOR TREATMENT OF MICROORGANISMS DURING SUGAR PRODUCTION AND SUGAR-BASED FE[…]” (priority 2008, published 2010):

Columns and labels:
bacteria = test: Plant trial: lactate in the fermentor while the thin juice line is treated with chlorine dioxide
Method: A thin juice line at a sugar plant that fed into a distillery for fermentation was treated with chlorine dioxide according to the present method. Previously the thin juice line had been treated using sulfuric acid to decrease the pH. The trial evaluated the bacterial efficacy of chlorine dioxide at an elevated pH in order to reduce sulfuric acid use without causing a detrimental effect to the yeast or fermentation.
In the trial, 90% pure chlorine dioxide solution was generated. Twenty parts per million (ppm) of chlorine dioxide was introduced into the thin juice line. Thin juice samples were collected before during and after the trial. The samples were examined for chlorite, chlorate and chloride residuals.
During the trial, bacterial samples were also collected and analyzed at various locations in the system.
The data indicates a low level of lactate before chlorine dioxide was introduced at the normal pH of 3.5. […] On day 18 the equipment had to be shutdown due to an unrelated issue.

fermentation = details: cited from earlier work
Weisella confusa = details: cited from earlier work

## [O][Cl+][O-] [chlorine dioxide]
bacteria; Day of Trial 4, Fifth location in the Fermentor
  Lactate Concentration: 0.6 g/L
bacteria; Day of Trial 4, First location in the Fermentor
  Lactate Concentration: 0.39 g/L
bacteria; Day of Trial 4, Fourth location in the Fermentor
  Lactate Concentration: 0.58 g/L
bacteria; Day of Trial 4, Second location in the Fermentor
  Lactate Concentration: 0.6 g/L
bacteria; Day of Trial 4, Third location in the Fermentor
  Lactate Concentration: 0.6 g/L
bacteria; Day of Trial 5, Fifth location in the Fermentor
  Lactate Concentration: 0.75 g/L
bacteria; Day of Trial 5, First location in the Fermentor
  Lactate Concentration: 0.44 g/L
bacteria; Day of Trial 5, Fourth location in the Fermentor
  Lactate Concentration: 0.69 g/L
bacteria; Day of Trial 5, Second location in the Fermentor
  Lactate Concentration: 0.66 g/L
bacteria; Day of Trial 5, Third location in the Fermentor
  Lactate Concentration: 0.71 g/L
bacteria; Day of Trial 6, Fifth location in the Fermentor
  Lactate Concentration: 0.69 g/L
bacteria; Day of Trial 6, First location in the Fermentor
  Lactate Concentration: 0.39 g/L
bacteria; Day of Trial 6, Fourth location in the Fermentor
  Lactate Concentration: 0.71 g/L
bacteria; Day of Trial 6, Second location in the Fermentor
  Lactate Concentration: 0.54 g/L
bacteria; Day of Trial 6, Third location in the Fermentor
  Lactate Concentration: 0.62 g/L
bacteria; Day of Trial 7, Fifth location in the Fermentor
  Lactate Concentration: 0.9 g/L
bacteria; Day of Trial 7, First location in the Fermentor
  Lactate Concentration: 0.51 g/L
bacteria; Day of Trial 7, Fourth location in the Fermentor
  Lactate Concentration: 0.88 g/L
bacteria; Day of Trial 7, Second location in the Fermentor
  Lactate Concentration: 0.76 g/L
bacteria; Day of Trial 7, Third location in the Fermentor
  Lactate Concentration: 0.81 g/L
bacteria; Day of Trial 8, Fifth location in the Fermentor
  Lactate Concentration: 0.75 g/L
bacteria; Day of Trial 8, First location in the Fermentor
  Lactate Concentration: 0.44 g/L
bacteria; Day of Trial 8, Fourth location in the Fermentor
  Lactate Concentration: 0.7 g/L
bacteria; Day of Trial 8, Second location in the Fermentor
  Lactate Concentration: 0.55 g/L
bacteria; Day of Trial 8, Third location in the Fermentor
  Lactate Concentration: 0.64 g/L
bacteria; Day of Trial 9, Fifth location in the Fermentor
  Lactate Concentration: 0.83 g/L
bacteria; Day of Trial 9, First location in the Fermentor
  Lactate Concentration: 0.5 g/L
bacteria; Day of Trial 9, Fourth location in the Fermentor
  Lactate Concentration: 0.78 g/L
bacteria; Day of Trial 9, Second location in the Fermentor
  Lactate Concentration: 0.68 g/L
bacteria; Day of Trial 9, Third location in the Fermentor
  Lactate Concentration: 0.74 g/L
bacteria; Day of Trial 10, Fifth location in the Fermentor
  Lactate Concentration: 0.84 g/L
bacteria; Day of Trial 10, First location in the Fermentor
  Lactate Concentration: 0.55 g/L
bacteria; Day of Trial 10, Fourth location in the Fermentor
  Lactate Concentration: 0.83 g/L
bacteria; Day of Trial 10, Second location in the Fermentor
  Lactate Concentration: 0.77 g/L
bacteria; Day of Trial 10, Third location in the Fermentor
  Lactate Concentration: 0.82 g/L
bacteria; Day of Trial 11, Fifth location in the Fermentor
  Lactate Concentration: 0.8 g/L
bacteria; Day of Trial 11, First location in the Fermentor
  Lactate Concentration: 0.4 g/L
bacteria; Day of Trial 11, Fourth location in the Fermentor
  Lactate Concentration: 0.65 g/L
bacteria; Day of Trial 11, Second location in the Fermentor
  Lactate Concentration: 0.5 g/L
bacteria; Day of Trial 11, Third location in the Fermentor
  Lactate Concentration: 0.55 g/L
bacteria; Day of Trial 13, Fifth location in the Fermentor
  Lactate Concentration: 0.42 g/L
bacteria; Day of Trial 13, First location in the Fermentor
  Lactate Concentration: 0.22 g/L
bacteria; Day of Trial 13, Fourth location in the Fermentor
  Lactate Concentration: 0.39 g/L
bacteria; Day of Trial 13, Second location in the Fermentor
  Lactate Concentration: 0.33 g/L
bacteria; Day of Trial 13, Third location in the Fermentor
  Lactate Concentration: 0.36 g/L
bacteria; Day of Trial 14, Fifth location in the Fermentor
  Lactate Concentration: 0.51 g/L
bacteria; Day of Trial 14, First location in the Fermentor
  Lactate Concentration: 0.22 g/L
bacteria; Day of Trial 14, Fourth location in the Fermentor
  Lactate Concentration: 0.4 g/L
bacteria; Day of Trial 14, Second location in the Fermentor
  Lactate Concentration: 0.36 g/L
bacteria; Day of Trial 14, Third location in the Fermentor
  Lactate Concentration: 0.37 g/L
bacteria; Day of Trial 15, Fifth location in the Fermentor
  Lactate Concentration: 0.5 g/L
bacteria; Day of Trial 15, First location in the Fermentor
  Lactate Concentration: 0.22 g/L
bacteria; Day of Trial 15, Fourth location in the Fermentor
  Lactate Concentration: 0.4 g/L
bacteria; Day of Trial 15, Second location in the Fermentor
  Lactate Concentration: 0.32 g/L
bacteria; Day of Trial 15, Third location in the Fermentor
  Lactate Concentration: 0.34 g/L
bacteria; Day of Trial 16, Fifth location in the Fermentor
  Lactate Concentration: 0.6 g/L
bacteria; Day of Trial 16, First location in the Fermentor
  Lactate Concentration: 0.3 g/L
bacteria; Day of Trial 16, Fourth location in the Fermentor
  Lactate Concentration: 0.5 g/L
bacteria; Day of Trial 16, Second location in the Fermentor
  Lactate Concentration: 0.4 g/L
bacteria; Day of Trial 16, Third location in the Fermentor
  Lactate Concentration: 0.45 g/L
bacteria; Day of Trial 17, Fifth location in the Fermentor
  Lactate Concentration: 0.67 g/L
bacteria; Day of Trial 17, First location in the Fermentor
  Lactate Concentration: 0.29 g/L
bacteria; Day of Trial 17, Fourth location in the Fermentor
  Lactate Concentration: 0.57 g/L
bacteria; Day of Trial 17, Second location in the Fermentor
  Lactate Concentration: 0.43 g/L
bacteria; Day of Trial 17, Third location in the Fermentor
  Lactate Concentration: 0.5 g/L
bacteria; Day of Trial 18, Fifth location in the Fermentor
  Lactate Concentration: 0.62 g/L
bacteria; Day of Trial 18, First location in the Fermentor
  Lactate Concentration: 0.43 g/L
bacteria; Day of Trial 18, Fourth location in the Fermentor
  Lactate Concentration: 0.6 g/L
bacteria; Day of Trial 18, Second location in the Fermentor
  Lactate Concentration: 0.48 g/L
bacteria; Day of Trial 18, Third location in the Fermentor
  Lactate Concentration: 0.54 g/L
bacteria; Day of Trial 19, Fifth location in the Fermentor
  Lactate Concentration: 1.1 g/L
bacteria; Day of Trial 19, First location in the Fermentor
  Lactate Concentration: 0.4 g/L
bacteria; Day of Trial 19, Fourth location in the Fermentor
  Lactate Concentration: 0.8 g/L
bacteria; Day of Trial 19, Second location in the Fermentor
  Lactate Concentration: 0.6 g/L
bacteria; Day of Trial 19, Third location in the Fermentor
  Lactate Concentration: 0.7 g/L
bacteria; Day of Trial 20, Fifth location in the Fermentor
  Lactate Concentration: 0.85 g/L
bacteria; Day of Trial 20, First location in the Fermentor
  Lactate Concentration: 0.55 g/L
bacteria; Day of Trial 20, Fourth location in the Fermentor
  Lactate Concentration: 0.5 g/L
bacteria; Day of Trial 20, Second location in the Fermentor
  Lactate Concentration: 0.7 g/L
bacteria; Day of Trial 20, Third location in the Fermentor
  Lactate Concentration: 0.75 g/L
bacteria; Day of Trial 21, Fifth location in the Fermentor
  Lactate Concentration: 1.36 g/L
bacteria; Day of Trial 21, First location in the Fermentor
  Lactate Concentration: 0.9 g/L
bacteria; Day of Trial 21, Fourth location in the Fermentor
  Lactate Concentration: 1.35 g/L
bacteria; Day of Trial 21, Second location in the Fermentor
  Lactate Concentration: 1.16 g/L
bacteria; Day of Trial 21, Third location in the Fermentor
  Lactate Concentration: 1.24 g/L
bacteria; Day of Trial 22, Fifth location in the Fermentor
  Lactate Concentration: 1.66 g/L
bacteria; Day of Trial 22, First location in the Fermentor
  Lactate Concentration: 1.31 g/L
bacteria; Day of Trial 22, Fourth location in the Fermentor
  Lactate Concentration: 2.04 g/L
bacteria; Day of Trial 22, Second location in the Fermentor
  Lactate Concentration: 1.73 g/L
bacteria; Day of Trial 22, Third location in the Fermentor
  Lactate Concentration: 2.01 g/L
bacteria; Day of Trial 23, Fifth location in the Fermentor
  Lactate Concentration: 2.15 g/L
bacteria; Day of Trial 23, First location in the Fermentor
  Lactate Concentration: 1.39 g/L
bacteria; Day of Trial 23, Fourth location in the Fermentor
  Lactate Concentration: 2.19 g/L
bacteria; Day of Trial 23, Second location in the Fermentor
  Lactate Concentration: 1.75 g/L
bacteria; Day of Trial 23, Third location in the Fermentor
  Lactate Concentration: 2.01 g/L
bacteria; Day of Trial 24, Fifth location in the Fermentor
  Lactate Concentration: 2.13 g/L
bacteria; Day of Trial 24, First location in the Fermentor
  Lactate Concentration: 1.12 g/L
bacteria; Day of Trial 24, Fourth location in the Fermentor
  Lactate Concentration: 2 g/L
bacteria; Day of Trial 24, Second location in the Fermentor
  Lactate Concentration: 1.41 g/L
bacteria; Day of Trial 24, Third location in the Fermentor
  Lactate Concentration: 1.73 g/L
bacteria; chlorine dioxide at 20 ppm with a pH elevation to 4
  lactate trend once treatment was started: trended downward

## Virginiamycin
fermentation
  concentration that will suppress fermentation: over 6 mg/L
Weisella confusa
  concentration required to inhibit growth of Weisella confusa: over 25 mg/L
